Reference: PubChem BioAssay AID623945 (Vanderbilt Specialized Chemistry Center, 2012)

Target: Muscarinic acetylcholine receptor M4 (Rattus norvegicus) (UniProt P08485)
Assay: rat M4 positive allosteric modulator potency, SAR follow-up, selectivity assay for human M4 PAM optimization, CHO cells, Gqi5 chimera, calcium, ACh EC20 (AID 623945)
Details: CHO rM4/Gqi5 calcium fluorescence, ACh EC20 potentiation;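 active means compounds whose calcium response at rat M4 cells rose with dose, giving a fitted EC50; inactive means the rest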

Chain of Muscarinic acetylcholine receptor M4 (Rattus norvegicus) (P08485 whole entry, looked up): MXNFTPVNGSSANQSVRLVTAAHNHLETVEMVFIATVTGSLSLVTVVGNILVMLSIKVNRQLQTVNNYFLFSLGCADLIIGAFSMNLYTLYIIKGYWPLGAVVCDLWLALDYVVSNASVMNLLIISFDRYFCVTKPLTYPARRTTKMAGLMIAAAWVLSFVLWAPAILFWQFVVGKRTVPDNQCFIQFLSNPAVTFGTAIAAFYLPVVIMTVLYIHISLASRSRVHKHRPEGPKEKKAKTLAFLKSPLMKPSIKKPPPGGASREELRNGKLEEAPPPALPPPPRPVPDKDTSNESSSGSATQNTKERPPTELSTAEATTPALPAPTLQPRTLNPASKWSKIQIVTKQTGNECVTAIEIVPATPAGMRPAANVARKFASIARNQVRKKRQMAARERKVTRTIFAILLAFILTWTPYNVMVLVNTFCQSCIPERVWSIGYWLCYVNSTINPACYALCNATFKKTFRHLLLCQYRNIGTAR

EC50, active:
Cc1nc2sc(C(=O)NCCc3ccncc3)c(N)c2c(C)c1Cl 229 nM, Cc1nc2sc(C(=O)NCc3ccccc3)c(N)c2c(C)c1Cl 126 nM, Cc1nc2sc(C(=O)NCc3nccs3)c(N)c2c(C)c1Cl 187 nM, COc1ccc(C)c2sc(NC(=O)c3ccncc3)nc12 3210 nM, Cc1nc2sc(C(=O)NCc3ccc4c(c3)OCO4)c(N)c2c(C)c1Cl 62 nM, Cc1nc2sc(C(=O)NCc3ccncc3)c(N)c2c(C)c1Cl 173 nM, Cc1nc2sc(C(=O)NC3CC3)c(N)c2c(C)c1Cl 151 nM, Cc1nc2sc(C(=O)NCc3ccncn3)c(N)c2c(C)c1Cl 527 nM, Cc1nc2sc(C(=O)NCc3cccc(F)c3F)c(N)c2c(C)c1Cl 114 nM, Cc1nc2sc(C(=O)NCc3cccnc3)c(N)c2c(C)c1Cl 272 nM
